Laboratory results taken from patent US12552798B2, “Substituted imidazolecarboxamide as Bruton's tyrosine kinase inhibitors” (Henan Zhiwei Biomedicine Co., Ltd., priority 2019, dated 2026).
Read-outs that look alike come from different tables or passages of the source. Blank lines part the entries; values can stand above or below the molecule they belong to.

Experiments:
293T = test: Cell antiproliferative activity assay (CellTiter-Glo), 293T; assay type: cell-based; details: 72 hs, read-out: Cell Growth IC50 (nM) 293T
Experimental: (§1) Cell Antiproliferative Activity Assay
(§2) Cell antiproliferative activity was evaluated by the CellTiter-Glo (Promega, USA) assay. Make 1000× compounds solution in DMSO, add 1 μl 1000× compounds to […] growth medium to make 20× compounds. Dilute cell suspensions in growth medium to desired density and 95 μl were taken to 96-well plate. Add 5 μl 20× compounds into 96-well plate according to the plate map. Final DMSO concentration in each well was 0.1%. Then the cell was incubated at 37° C., 5% CO2 for 72 hs. Equilibrate the assay plate to room temperature before measurement. Add 20 μl of CellTiter-Glo© Reagent into each well. Mix contents for 2 minutes on an orbital shaker to induce cell lysis. Incubate at room temperature for 10 minutes to stabilize luminescent signal. Record luminescence using EnVision Multilabel Reader (PerkinElmer). Cell viability (CV %) was calculated relative to vehicle (DMSO) treated control wells using following formula: Cell viability (%)=(RLU compound−RLU blank)/(RLU control−RLU blank)*100%. The IC50 values were calculated using GraphPad Prism 6.0 software, fitting to a 4-parameter equation to generate concentration response curves. All assays were conducted with three parallel samples and three repetitions.

ITK = ITK (Homo sapiens (Human), UniProt Q08881); test: ITK kinase inhibitory assay (ELISA); assay type: biochemical; details: for IC50: ELISA, 3 μmol/L ATP; for Selectivity Ratio (BTK and ITK): ITK IC50 relative to BTK IC50
Experimental: (§3) BTK, EGFR, BMX, or ITK Inhibitory Assay Procedure for BTK, BMX, EGFR and ITK Inhibitory Assay:
(§4) Kinase inhibitory activities of compounds were evaluated using the Enzyme-linked immunosorbent assay (ELISA). The kinase enzyme of BTK, BMX, EGFR and ITK were purchased from Carna Bioscience (Kobe, Japan). A total of 10 ng/mL antiphosphotyrosine (PY713) antibody (abcam, Cambridge Science Park, UK) was precoated in 96-well ELISA plates. The kinase enzymes in each reaction well were set to BTK (101.25 ng/mL), BMX (90 ng/mL), EGFR (90 ng/mL) or ITK (120 ng/mL) and incubated with indicated compounds in 1× reaction buffer (50 mmol/L HEPES pH 7.4, 20 mmol/L MgCl2, 0.1 mmol/L MnCl2, 1 mmol/L DTT) containing 20 μmol/L (the final concentration of substrate in ITK reaction was 30 μmol/L) substrate (NH2-ETVYSEVRK-biotin) at 25° C. for 1 h. Then, a total of 3 μmol/L ATP was added and the reaction was continued for 2 hrs. The products of reaction were transferred into 96-well ELISA plates containing antibody and incubated at 25° C. for 30 min. After incubation, the wells were washed with PBS and then incubated with horseradish peroxidase […]-conjugated streptavidin. The wells were visualized using 3,3′,5,5′-tetramethylbenzidine (TMB), and chromogenic reaction was ended with 2 mol/L H2SO4, the absorbance was read with a multimode plate reader (PerkinElmer, USA) at 450 nm. IC50 values and curve fits were obtained using Prism (GraphPad Software).

BMX = BMX (Homo sapiens (Human), UniProt P51813); test: BMX kinase inhibitory assay (ELISA); assay type: biochemical; details: for Selectivity Ratio (BTK and BMX): BMX IC50 relative to BTK IC50; for IC50: ELISA, 3 μmol/L ATP
Experimental: as §3, §4

BTK = BTK (Homo sapiens (Human), UniProt Q06187); test: BTK kinase inhibitory assay (ELISA); assay type: biochemical; details: 3 μmol/L ATP
Experimental: as §3, §4

EGFR = EGFR (Homo sapiens (Human), UniProt P00533); test: EGFR kinase inhibitory assay (ELISA); assay type: biochemical; details: for Selectivity Ratio (BTK and EGFR): EGFR IC50 relative to BTK IC50; for IC50: ELISA, 3 μmol/L ATP
Experimental: as §3, §4

TMD8 = test: Cell antiproliferative activity assay (CellTiter-Glo), TMD8; assay type: cell-based; details: read-out: Cell Growth IC50 (nM) TMD8
Experimental: as §1, §2

BMX, sequence (P51813 whole entry): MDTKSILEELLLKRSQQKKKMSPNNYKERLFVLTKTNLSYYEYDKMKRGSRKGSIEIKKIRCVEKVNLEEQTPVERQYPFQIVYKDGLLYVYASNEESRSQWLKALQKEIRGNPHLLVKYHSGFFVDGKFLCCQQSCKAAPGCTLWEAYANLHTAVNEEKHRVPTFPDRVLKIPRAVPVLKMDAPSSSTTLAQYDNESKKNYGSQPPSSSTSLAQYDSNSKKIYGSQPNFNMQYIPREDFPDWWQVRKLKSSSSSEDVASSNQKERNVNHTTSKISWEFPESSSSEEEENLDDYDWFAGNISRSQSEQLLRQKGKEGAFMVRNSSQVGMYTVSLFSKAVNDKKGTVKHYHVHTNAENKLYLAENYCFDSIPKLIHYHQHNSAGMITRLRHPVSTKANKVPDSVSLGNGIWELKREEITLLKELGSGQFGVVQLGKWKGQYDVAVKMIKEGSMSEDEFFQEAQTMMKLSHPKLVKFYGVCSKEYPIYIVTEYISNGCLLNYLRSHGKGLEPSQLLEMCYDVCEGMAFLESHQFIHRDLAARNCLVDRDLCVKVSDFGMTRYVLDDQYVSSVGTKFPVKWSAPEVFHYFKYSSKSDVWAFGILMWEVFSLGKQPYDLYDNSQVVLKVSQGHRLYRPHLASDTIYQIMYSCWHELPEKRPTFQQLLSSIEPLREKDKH
BTK, sequence (Q06187 whole entry): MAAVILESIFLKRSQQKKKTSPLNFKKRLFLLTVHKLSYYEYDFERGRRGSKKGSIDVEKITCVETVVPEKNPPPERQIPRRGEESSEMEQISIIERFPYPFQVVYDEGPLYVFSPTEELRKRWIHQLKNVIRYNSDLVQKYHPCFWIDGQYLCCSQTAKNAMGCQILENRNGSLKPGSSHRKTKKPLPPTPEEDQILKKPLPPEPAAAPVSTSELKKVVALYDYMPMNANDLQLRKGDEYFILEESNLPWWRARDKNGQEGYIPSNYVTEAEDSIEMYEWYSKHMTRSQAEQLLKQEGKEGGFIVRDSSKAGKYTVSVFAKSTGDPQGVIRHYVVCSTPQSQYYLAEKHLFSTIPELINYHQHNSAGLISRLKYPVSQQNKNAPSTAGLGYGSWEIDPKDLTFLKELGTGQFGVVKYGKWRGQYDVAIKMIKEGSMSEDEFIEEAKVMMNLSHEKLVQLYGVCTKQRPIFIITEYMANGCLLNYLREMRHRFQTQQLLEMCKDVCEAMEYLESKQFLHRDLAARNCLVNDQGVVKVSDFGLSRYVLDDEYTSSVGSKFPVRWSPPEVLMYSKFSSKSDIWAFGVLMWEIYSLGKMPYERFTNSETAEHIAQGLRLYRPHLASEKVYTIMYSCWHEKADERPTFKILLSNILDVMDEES
ITK, sequence (Q08881 whole entry): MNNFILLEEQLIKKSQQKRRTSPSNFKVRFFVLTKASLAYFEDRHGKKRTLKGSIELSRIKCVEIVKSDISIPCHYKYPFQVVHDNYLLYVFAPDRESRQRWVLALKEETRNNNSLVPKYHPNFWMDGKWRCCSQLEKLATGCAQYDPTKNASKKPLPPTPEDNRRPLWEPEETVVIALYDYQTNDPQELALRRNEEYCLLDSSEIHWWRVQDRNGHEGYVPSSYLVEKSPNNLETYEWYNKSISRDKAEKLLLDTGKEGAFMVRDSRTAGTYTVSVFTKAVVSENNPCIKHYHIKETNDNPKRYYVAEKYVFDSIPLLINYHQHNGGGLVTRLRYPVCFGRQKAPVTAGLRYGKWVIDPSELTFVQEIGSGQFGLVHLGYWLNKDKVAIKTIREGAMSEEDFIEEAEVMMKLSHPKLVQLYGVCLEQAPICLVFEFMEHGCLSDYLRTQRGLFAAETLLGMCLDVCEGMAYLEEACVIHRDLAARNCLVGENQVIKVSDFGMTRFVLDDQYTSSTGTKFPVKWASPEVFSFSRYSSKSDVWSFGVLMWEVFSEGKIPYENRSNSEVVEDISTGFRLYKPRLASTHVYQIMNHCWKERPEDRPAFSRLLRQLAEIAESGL
EGFR, sequence (P00533 25-1210): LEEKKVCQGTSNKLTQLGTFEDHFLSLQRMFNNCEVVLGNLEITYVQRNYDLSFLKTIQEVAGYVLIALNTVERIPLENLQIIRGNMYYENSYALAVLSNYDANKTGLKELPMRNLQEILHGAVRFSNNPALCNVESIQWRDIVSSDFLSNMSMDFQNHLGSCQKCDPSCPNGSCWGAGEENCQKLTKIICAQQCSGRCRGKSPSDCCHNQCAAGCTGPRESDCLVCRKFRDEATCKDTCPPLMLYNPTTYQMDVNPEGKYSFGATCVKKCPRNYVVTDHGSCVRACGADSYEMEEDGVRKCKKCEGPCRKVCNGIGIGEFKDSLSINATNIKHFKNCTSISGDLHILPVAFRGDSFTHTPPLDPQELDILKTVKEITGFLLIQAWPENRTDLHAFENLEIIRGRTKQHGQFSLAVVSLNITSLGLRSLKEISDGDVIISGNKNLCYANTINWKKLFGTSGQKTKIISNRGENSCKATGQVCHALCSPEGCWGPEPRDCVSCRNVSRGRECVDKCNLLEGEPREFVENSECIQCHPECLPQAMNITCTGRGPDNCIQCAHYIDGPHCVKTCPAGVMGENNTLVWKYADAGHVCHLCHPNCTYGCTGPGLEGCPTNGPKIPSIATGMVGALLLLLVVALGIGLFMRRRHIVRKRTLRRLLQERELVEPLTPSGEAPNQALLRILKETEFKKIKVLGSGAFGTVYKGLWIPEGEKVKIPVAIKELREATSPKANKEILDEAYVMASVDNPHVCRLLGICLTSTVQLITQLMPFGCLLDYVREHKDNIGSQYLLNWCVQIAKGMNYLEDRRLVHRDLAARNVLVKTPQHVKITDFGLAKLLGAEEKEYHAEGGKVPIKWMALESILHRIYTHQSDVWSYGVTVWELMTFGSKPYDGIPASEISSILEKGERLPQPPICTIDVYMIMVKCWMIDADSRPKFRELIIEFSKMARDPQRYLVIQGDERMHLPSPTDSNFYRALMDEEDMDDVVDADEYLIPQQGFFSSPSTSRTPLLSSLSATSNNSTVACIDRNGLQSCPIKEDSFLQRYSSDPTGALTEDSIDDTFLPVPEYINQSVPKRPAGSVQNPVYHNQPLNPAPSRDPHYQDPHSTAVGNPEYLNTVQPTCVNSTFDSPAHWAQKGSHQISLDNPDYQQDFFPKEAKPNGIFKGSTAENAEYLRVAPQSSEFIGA

Compound: CC#CC(=O)N1CCC(C2CCNn3c2nc(-c2ccc(Oc4ccccc4)cc2)c3C(N)=O)CC1 (stereo not shown) [Example 2, 8-[1-(1-Oxo-but-2-ynyl)-piperidin-4-yl]-2-(4-phenoxy-phenyl)-5,6,7,8-tetrahydro-imidazo[1,2-b]pyridazine-3-carboxamide]
IC50 (BTK): 76.4 nM

Compound: N#C/C(=C\C1CC1)C(=O)N1CCC(C2CCNn3c2nc(-c2ccc(Oc4ccccc4)cc2)c3C(N)=O)CC1 (stereo not shown) [Example 8, 8-[1-(2-Cyano-3-cyclopropyl-acryloyl)-piperidin-4-yl]-2-(4-phenoxy-phenyl)-5,6,7,8-tetrahydro-imidazo[1,2-b]pyridazine-3-carboxamide]
IC50 (BTK): 285 nM

Compound: CC#CC(=O)N1CCC(C2CCNn3c2nc(-c2ccc(Oc4ccc(F)cc4)cc2)c3C(N)=O)CC1 (stereo not shown) [Example 13, 8-(1-(but-2-ynoyl)piperidin-4-yl)-2-(4-(4-fluorophenoxy)phenyl)-5,6,7,8-tetrahydroimidazo[1,2-b]pyridazine-3-carboxamide]
IC50 (BTK): 122 nM

Compound: CC#CC(=O)N1CCC(C2CCNn3c2nc(-c2ccc(Oc4ccc(OC)cc4)cc2)c3C(N)=O)CC1 (stereo not shown) [Example 16, 8-(1-(but-2-ynoyl)piperidin-4-yl)-2-(4-(4-methoxyphenoxy)phenyl)-5,6,7,8-tetrahydroimidazo[1,2-b]pyridazine-3-carboxamide]
IC50 (BTK): 778 nM

Compound: COc1ccc(Oc2ccc(-c3nc4n(c3C(N)=O)NCCC4C3CCN(C(=O)/C=C/C(F)(F)F)CC3)cc2)cc1 (stereo not shown) [Example 17, (E)-2-(4-(4-methoxyphenoxy)phenyl)-8-(1-(4,4,4-trifluorobut-2-enoyl)piperidin-4-yl)-5,6,7,8-tetrahydroimidazo[1,2-b]pyridazine-3-carboxamide]
IC50 (BTK): 212 nM

Compound: C=CC(=O)N1CCC(C2CCNn3c2nc(-c2ccc(Oc4ccccc4)cc2)c3C(N)=O)C1 (stereo not shown) [Example 21, 8-(1-acryloylpyrrolidin-3-yl)-2-(4-phenoxyphenyl)-5,6,7,8-tetrahydroimidazo[1,2-b]pyridazine-3-carboxamide]
IC50 (BTK): 132 nM

Compound: CN(C)C/C=C/C(=O)N1CCC(C2CCNn3c2nc(-c2ccc(Oc4ccccc4)cc2)c3C(N)=O)CC1 (stereo not shown) [Example 25, (E)-8-(1-(4-(dimethylamino)but-2-enoyl)piperidin-4-yl)-2-(4-phenoxyphenyl)-5,6,7,8-tetrahydroimidazo[1,2-b]pyridazine-3-carboxamide]
IC50 (BTK): 185 nM

Compound: C=CC(=O)N1CCC(C2CCNn3c2nc(-c2ccc(OC)cc2)c3C(N)=O)CC1 (stereo not shown) [Example 27, 8-(1-acryloylpiperidin-4-yl)-2-(4-methoxyphenyl)-5,6,7,8-tetrahydroimidazo[1,2-b]pyridazine-3-carboxamide]
IC50 (BTK): 242 nM

Now those with a lower IC50 (BTK), led by results:

IC50 (BTK): 61.5 nM
Compound: NC(=O)c1c(-c2ccc(Oc3ccc(F)cc3)cc2)nc2n1NCCC2C1CCN(C(=O)/C=C/C(F)(F)F)CC1 (stereo not shown) [Example 14, (E)-2-(4-(4-fluorophenoxy)phenyl)-8-(1-(4,4,4-trifluorobut-2-enoyl)piperidin-4-yl)-5,6,7,8-tetrahydroimidazo[1,2-b]pyridazine-3-carboxamide]

IC50 (BTK): 49.4 nM
Compound: C=CC(=O)N1CCC(C2CCNn3c2nc(-c2ccc(Oc4ccc(F)cc4)cc2)c3C(N)=O)CC1 (stereo not shown) [Example 12, 8-(1-acryloylpiperidin-4-yl)-2-(4-(4-fluorophenoxy)phenyl)-5,6,7,8-tetrahydroimidazo[1,2-b]pyridazine-3-carboxamide]

IC50 (BTK): 46.5 nM
Compound: C=CC(=O)N1CCC(C2CCNn3c2nc(-c2ccc(Oc4ccccc4)c(OC)c2)c3C(N)=O)CC1 (stereo not shown) [Example 29, 8-(1-acryloylpiperidin-4-yl)-2-(3-methoxy-4-phenoxyphenyl)-5,6,7,8-tetrahydroimidazo[1,2-b]pyridazine-3-carboxamide]

IC50 (BTK): 42.6 nM
Compound: C=CC(=O)N1CCC(C2CCNn3c2nc(-c2ccc(Oc4ccc(OC)cc4)cc2)c3C(N)=O)CC1 (stereo not shown) [Example 15, 8-(1-acryloylpiperidin-4-yl)-2-(4-(4-methoxyphenoxy)phenyl)-5,6,7,8-tetrahydroimidazo[1,2-b]pyridazine-3-carboxamide]

IC50 (BTK): 37.4 nM
Compound: C=CC(=O)N1CC(C2CCNn3c2nc(-c2ccc(Oc4ccccc4)cc2)c3C(N)=O)C1 (stereo not shown) [Example 18, 8-(1-acryloylazetidin-3-yl)-2-(4-phenoxyphenyl)-5,6,7,8-tetrahydroimidazo[1,2-b]pyridazine-3-carboxamide]

IC50 (ITK): > 30000 nM | Selectivity Ratio (BTK and ITK) (ITK): >1038 | Selectivity Ratio (BTK and BMX) (BMX): 1.86 | IC50 (BMX): 53.9 nM | IC50 (BTK): 28.9 nM | Selectivity Ratio (BTK and EGFR) (EGFR): 5.87 | IC50 (EGFR): 170 nM
Compound: C=CC(=O)N1CCC(C2CCNn3c2nc(-c2ccc(Oc4ccccc4)cc2)c3C(N)=O)CC1 (single isomer, unassigned) [1b (peak 2)]
IC50 (293T): 5240 nM | IC50 (TMD8; TMD8, 72 hs): 102 nM

IC50 (ITK): > 30000 nM | Selectivity Ratio (BTK and ITK) (ITK): >2803.7 | Selectivity Ratio (BTK and BMX) (BMX): 7.51 | IC50 (BMX): 80.3 nM | IC50 (BTK): 10.7 nM | Selectivity Ratio (BTK and EGFR) (EGFR): 35.66 | IC50 (EGFR): 382 nM
Compound: C=CC(=O)N1CCC(C2CCn3c2nc(-c2ccc(Oc4ccccc4)c(OC)c2)c3C(N)=O)CC1 (stereo not shown) [Example 28, 7-(1-acryloylpiperidin-4-yl)-2-(3-methoxy-4-phenoxyphenyl)-6,7-dihydro-5H-pyrrolo[1,2-a]imidazole-3-carboxamide]

IC50 (ITK): 4660 nM | Selectivity Ratio (BTK and ITK) (ITK): 555.2 | Selectivity Ratio (BTK and BMX) (BMX): 3.70 | IC50 (BMX): 31.1 nM | IC50 (BTK): 8.4 nM | Selectivity Ratio (BTK and EGFR) (EGFR): 9.75 | IC50 (EGFR): 81.9 nM
Compound: C=CC(=O)N1CCC(C2CCn3c2nc(-c2ccc(Oc4ccccc4)cc2)c3C(N)=O)CC1 (stereo not shown) [Example 26, 7-(1-acryloylpiperidin-4-yl)-2-(4-phenoxyphenyl)-6,7-dihydro-5H-pyrrolo[1,2-a]imidazole-3-carboxamide]

IC50 (ITK): 27900 nM | Selectivity Ratio (BTK and ITK) (ITK): 5160.6 | Selectivity Ratio (BTK and BMX) (BMX): 11.94 | IC50 (BMX): 64.5 nM | IC50 (BTK): 5.4 nM | Selectivity Ratio (BTK and EGFR) (EGFR): 3.05 | IC50 (EGFR): 16.5 nM
Compound: C=CC(=O)Nc1ccccc1C1CCNn2c1nc(-c1ccc(Oc3ccccc3)cc1)c2C(N)=O (stereo not shown) [Example 22, 8-(2-acrylamidophenyl)-2-(4-phenoxyphenyl)-5,6,7,8-tetrahydroimidazo[1,2-b]pyridazine-3-carboxamide]

IC50 (ITK): 13600 nM | Selectivity Ratio (BTK and ITK) (ITK): 2945 | Selectivity Ratio (BTK and BMX) (BMX): 5.80 | IC50 (BMX): 26.7 nM | IC50 (BTK): 4.6 nM | Selectivity Ratio (BTK and EGFR) (EGFR): 19.48 | IC50 (EGFR): 89.6 nM
Compound: C=CC(=O)N1CCC(C2CCNn3c2nc(-c2ccc(Oc4ccccc4)cc2)c3C(N)=O)CC1 (stereo not shown) [Example 1, 8-(1-acryloylpiperidin-4-yl)-2-(4-phenoxyphenyl)-5,6,7,8-tetrahydroimidazo[1,2-b]pyridazine-3-carboxamide]
IC50 (293T; Homo sapiens, HEK-293T): 573000 nM | IC50 (TMD8; Homo sapiens, TMD8, TMD8, 72 hs): 12.3 nM
